Entries after “also recorded” stand apart in the source; their conditions may differ. Where two headings read alike, the source gives them in different places. Square brackets hold non-standard residues; d marks the D form. Peptide text beside a SMILES is read from it. * marks the point of attachment. Dolaproine = CO[C@@H]([C@@H]1CCCN1)[C@@H](C)C(=O)O; Dil = CC[C@H](C)[C@H](NC)[C@@H](CC(=O)O)OC; Doe = c1ccc(C[C@H](N*)c2nccs2)cc1; Aib = CC(C)(N)C(=O)O
Experiments:
[1] = tested on: N87-TM cells (N87-TM-1, N87-TM-2); test: Cytotoxicity studies (MTS) on T-DM1 resistant N87-TM cells made in vitro; format: cell-based
Experimental: N87 cells were passaged into two separate flasks and each flask was treated identically with respect to the resistance-generation protocol to enable biological duplicates. […] The procedure was intended to simulate the chronic, multi-cycle (on/off) dosing at maximally tolerated doses typically used for cytotoxic therapeutics in the clinic, followed by a recovery period. […] Drug selection pressure was removed after ˜3-4 months of cycle treatments when the level of resistance no longer increased after continued drug exposure. […] Data were collected from various thawed cryopreserved populations derived from a single selection, over approximately 1-2 years after model development to ensure consistency in the results.
Cells were seeded in 96-well plates at low density, then treated the following day with ADCs and unconjugated payloads at 3-fold serial dilutions at 10 concentrations in duplicate. Cells were incubated for 4 days in a humidified 37° C./5% CO2 incubator. The plates were harvested by incubating with CellTiter® 96 AQueous One MTS Solution (Promega, Madison, Wis.) for 1.5 hours and absorbance measured on a Victor plate reader (Perkin-Elmer, Waltham, Mass.) at wavelength 490 nm. IC50 values were calculated using a four-parameter logistic model with XLfit (IDBS, Bridgewater, N.J.).

N87 parental cells = test: Cytotoxicity studies (CellTiter Glo, 96 h) on parental N87 cells (Example 15); format: cell-based; settings: read-out: sensitivity to free payload (IC50), N87
Experimental: (§1) Cells were incubated for 96 hours in a humidified 37° C./5% CO2 incubator.

[2] = tested on: N87-T-DM1 cells (Mouse #7, #17, #2); test: Cytotoxicity studies (CellTiter Glo, 96 h) on cells relapsed from T-DM1 treatment in vivo; format: cell-based; settings: for IC50: Mus musculus; for sensitivity of T-DM1 resistant cells generated in vivo: N87-T-DM1 cells compared to parental
Experimental: as §1

[3] = tested on: HT29 colon carcinoma cells (EDB+FN negative); test: In vitro cytotoxicity of anti-EDB ADCs (Cell Titer Glo, 4 days); format: cell-based, human; settings: four days, ng/ml of antibody
Experimental: Proliferating WI38-VA13 or HT29 cells were harvested from culture flasks with non-enzymatic cell dissociation buffer and cultured overnight in 96-well plates (Corning) at 1000 cells/well in a humidified chamber (37° C., 5% CO2). […] In some experiments, cells were plated at 1500 cells/well and treated the same day. […] On harvest day, 50 μl of Cell Titer Glo (Promega) was added to the cells and incubated 0.5 hours at room temperature. […] Relative cell viability was determined as a percentage of untreated control wells. IC50 values were calculated using four-parameter logistic model #203 with XLfit v4.2 (IDBS).

PDX-NSX-11122 = PDX-NSX-11122 NSCLC PDX model; format: in vivo, mouse
Text: (§2) To generate PDX models, tumors were collected from donor animals and tumor fragments approximately 3×3 mm were implanted subcutaneously into the flank of female athymic nude mice (for PDX-NSX-11122 model) or NOD SCID mice (for PDX-PAX-13565 and PDX-PAX-12534 models) by using a 10 gage trocar. When average tumor volume reached approximately 160 to 260 mm^3 the mice were randomized into treatment groups, with 7-10 mice in each group. ADCs or vehicle (PBS) dosing regime and administration route as well as tumor measurement procedures are the same as described above for CLX models.

H-1975 = H-1975 NSCLC CLX model; format: in vivo, mouse
Text: (§3) To generate CLX models, 8×10^6 to 10×10^6 cells of H-1975, HT29, or Ramos tumor lines were implanted into female athymic nude mice subcutaneously. Ramos and H-1975 cells for inoculation were suspended in 50% and 100% Matrigel (BD Biosciences), respectively. For the Ramos model, the animals received whole body irradiation (4 Gy) before cell inoculation to facilitate the establishment of tumors. When the average tumor volume reached approximately 160 to 320 mm^3, the animals were randomized into treatment groups, with 8-10 mice in each group. ADCs or vehicle (PBS) were administered intravenously on day 0 and then the animals were dosed once every 4 days for 4 to 8 doses. Tumors were measured once or twice weekly and tumor volume was calculated as volume (mm^3)=(width×width×length)/2.

HT29 = HT29 colon CLX model; format: in vivo, mouse; settings: 3 mg/kg
Text: as §3

PDX-PAX-13565 = PDX-PAX-13565 pancreatic PDX model; format: in vivo, mouse; settings: 0.3, 1 and 3 mg/kg
Text: as §2

PDX-PAX-12534 = PDX-PAX-12534 pancreatic PDX model; format: in vivo, mouse; settings: 0.3, 1 and 3 mg/kg
Text: as §2

Ramos = Ramos lymphoma CLX model; format: in vivo, mouse; settings: 3 mg/kg
Text: as §3

N87 gastric xenografts = test: N87 gastric xenograft model; format: in vivo, mouse; settings: IV Q4d×4
Experimental: (§4) For each model described below the first dose was given on Day 1. The tumors were measured at least once a week and their volume was calculated with the formula: tumor volume (mm^3)=0.5×(tumor width^2)(tumor length). The mean tumor volumes (±S. E. M.) for each treatment group were calculated having a maximum of 8-10 animals and a minimum of 6-8 animals to be included.
When the tumors reached a volume of 250 to 450 mm^3, the tumors were staged to ensure uniformity of the tumor mass among various treatment groups.

[4] = tested on: N87 cell line xenograft tumors; test: Bystander effect, immunohistocytochemistry (pHH3, human IgG) of N87 xenograft tumors; format: in vivo, mouse; settings: single dose T-DM1 6 mg/kg or T-vc0101 3 mg/kg, tumors harvested 96 hours later
Text: Tumor sections were stained for human IgG to detect ADC bound to tumor cells and phosphhistone H3 (pHH3) to detect mitotic cells as readout of the proposed mechanism of action for the payloads of both ADCs.

N87 tumors = test: In vivo efficacy in N87 tumors in NSG mice; parameters: species or system mouse; settings: N87 model; 6 and 10 mg/kg Q4D×4
Experimental: (§5) In order to determine if the resistance observed in cell culture was recapitulated in vivo, parental N87 cells and N87-TM-2 cells were expanded and injected into the flanks of Female NOD scid gamma (NSG) immunodeficient mice (NOD. Cg-Prkdcscid II2rgtm1Wjl/SzJ) obtained from The Jackson Laboratory (Bar Harbor, Me.). Mice were injected subcutaneously in the right flank with suspensions of either N87 or N87-TM cells (7.5×10^6 cells per injection, with 50% Matrigel). Mice were randomized into study groups when tumors reached ˜0.3 g (˜250 mm^3). […] Tumors were measured weekly and mass calculated as volume=(width×width×length)/2. Time-to-event analysis (tumor doubling) was conducted and significance evaluated by Log-rank (Mantel-Cox) test.

N87-TM tumors = test: In vivo efficacy in T-DM1 resistant N87-TM tumors in NSG mice; parameters: species or system mouse; settings: N87-TM-2 model; 6 and 10 mg/kg
Experimental: as §5

N87 xenografts = test: T-DM1 resistance generated in vivo in N87 xenografts and follow-on treatment; parameters: species or system mouse; settings: […] weekly
Experimental: Tumors were measured twice per week or weekly and mass calculated as volume=(width×width×length)/2.

JIMT-1 breast xenografts = settings: even at 6 mg/kg, IV Q4d×4
Experimental: as §4
To generate xenografts, nude (Nu/Nu) female mice were implanted subcutaneously with 5×10^6 JIMT-1 cells (DSMZ# ACC-589) in 50% Matrigel (BD Biosciences). When the tumors reached a volume of 200 to 250 mm^3, the tumors were staged to ensure uniformity of the tumor mass among various treatment groups.

[5] = tested on: 144580 breast patient-derived xenografts; settings: all doses tested (1, 5, 3 and 6 mg/kg), Q4d×4
Experimental: as §4
The 144580 breast patient-derived xenografts were subcutaneously passaged in vivo as fragments from animal to animal in nude (Nu/Nu) female mice. When the tumors reached a volume of 150 to 300 mm^3, they were staged to ensure uniformity of the tumor size among various treatment groups.

[6] = tested on: 37622 patient-derived xenografts; settings: 10 mg/kg, Q4d×4
Experimental: as §4
The 37622 patient-derived xenografts were subcutaneously passaged in vivo as fragments from animal to animal in nude (Nu/Nu) female mice. When the tumors reached a volume of 150 to 300 mm^3, they were staged to ensure uniformity of the tumor size among various treatment groups.

[7] = read-out: sensitivity to free payload (IC50), N87-T-DM1_Ms2
[8] = read-out: sensitivity to free payload (IC50), N87-T-DM1_Ms7
[9] = read-out: sensitivity to free payload (IC50), N87-T-DM1_Ms17

## COc1cc2cc(c1Cl)N(C)C(=O)C[C@H](OC(=O)[C@H](C)N(C)C(=O)CCS)[C@]1(C)O[C@H]1[C@H](C)[C@@H]1C[C@@](O)(NC(=O)O1)[C@H](OC)/C=C/C=C(\C)C2 [DM1]
[1]
  sensitivity of N87-TM cells: retained sensitivity

## COc1cccc2c1C(=O)c1c(O)c3c(c(O)c1C2=O)C[C@@](O)(C(=O)CO)C[C@@H]3O[C@H]1C[C@H](N)[C@H](O)[C@H](C)O1 [Doxorubicin]
[1]
  sensitivity of N87-TM cells: lack of cross-resistance
N87 parental cells
  IC50: 48 nM
[2]; [7]
  IC50: 46 nM
[2]; [8]
  IC50: 79 nM
[2]; [9]
  IC50: 34 nM
[2]
  sensitivity of T-DM1 resistant cells generated in vivo: No resistance

## CC[C@H](C)[C@@H]([C@@H](CC(=O)N1CCC[C@H]1[C@H](OC)[C@@H](C)C(=O)N[C@@H](Cc1ccccc1)c1nccs1)OC)N(C)C(=O)[C@@H](NC(=O)C(C)(C)N)C(C)C [compound 0101, 2-methylalanyl-N-[(3R,4S,5S)-3-methoxy-1-{(2S)-2-[(1R,2R)-1-methoxy-2-methyl-3-oxo-3-{[(1 S)-2-phenyl-1-(1,3-thiazol-2-yl)ethyl]amino}propyl]pyrrolidin-1-yl}-5-methyl-1-oxoheptan-4-yl]-N-methyl-L-valinamide] (H-[Aib]V[Dil][Dolaproine]-Doe)
[1]
  sensitivity of N87-TM cells: retained sensitivity
N87 parental cells
  IC50: 0.5 nM
[2]; [7]
  IC50: 0.4 nM
[2]; [8]
  IC50: 0.6 nM
[2]; [9]
  IC50: 0.28 nM
[2]
  sensitivity of T-DM1 resistant cells generated in vivo: surprisingly sensitive; also recorded: not resistant

## CC(=O)O[C@H]1C(=O)[C@@]2(C)[C@H]([C@H](OC(=O)c3ccccc3)[C@]3(O)C[C@H](OC(=O)[C@H](O)[C@@H](NC(=O)c4ccccc4)c4ccccc4)C(C)=C1C3(C)C)[C@]1(OC(C)=O)CO[C@@H]1C[C@@H]2O [paclitaxel]
[1]
  sensitivity of N87-TM cells: lack of cross-resistance

## EDB-L19-diS-DM1
[3]
  Avg IC50: 237 ng/mL

## EDB-L19-vc-0101: anti-EDB antibody L19 conventionally conjugated to vc-0101
[3]
  Avg IC50: 15,346 ng/ml
PDX-NSX-11122; 1 mg/kg
  tumor response: delayed tumor growth
PDX-NSX-11122; 3 mg/kg
  tumor response: complete regressions
PDX-NSX-11122; 3 mg/kg and […]
  tumor response: tumor regression
PDX-NSX-11122; 1 and 3 mg/kg vs 10 mg/kg EDB-L19-diS-DM1, 5 mg/kg EDB-L19-diS-C2OCO-1569
  efficacy compared to isotype negative control ADCs and disulfide linker ADCs: greater efficacy
H-1975; 3 mg/kg
  tumor response: tumor regressions
H-1975; 3 mg/kg, and as low as […]
  tumor response: tumor regression
H-1975; 0.3, 1 and 3 mg/kg
  tumor response: tumor regression in a dose dependent manner
H-1975; highest doses evaluated (3 mg/kg ADC1; 1 mg/kg ADC9)
  tumor response: tumor regression
HT29
  tumor response: tumor regression
PDX-PAX-13565
  tumor response: tumor regression in a dose dependent manner
PDX-PAX-12534
  tumor response: tumor regression in a dose dependent manner
Ramos
  tumor response: tumor regression

## T-DM1
N87 gastric xenografts; 10 mg/kg
  tumor response: complete regression of tumors
N87 gastric xenografts; 1 and 3 mg/kg
  tumor response: delayed tumor growth
[4]
  bystander effect: is not
N87 tumors
  mice in which tumor doubling was prevented for at least 60 days: > 50%
N87-TM tumors
  prevention of tumor doubling: failed to do so
N87 xenografts
  mice responding to initial T-DM1 treatment: 17 out of 20
JIMT-1 breast xenografts
  tumor response: inactive
[5]
  tumor response: ineffective
[6]
  tumor response: only provided some therapeutic benefit

Reference: patent US20170216452A1, “ANTIBODIES AND ANTIBODY FRAGMENTS FOR SITE-SPECIFIC CONJUGATION” (Pfizer Inc., priority 2015, published 2017)
